Measured values published in patent publication US20240101584A1, “TARGETED DELIVERY OF 1,2,4,5 TETRAOXANE COMPOUNDS AND THEIR USES” (Westlake University, priority 2021, published 2024).
Where two headings read alike, the source gives them in different places.

Legend:
MDA-MB-231 cells = experiment: MTT viability assay, MDA-MB-231 cells; type: cell-based; details: for IC50: Homo sapiens; for fold more potent than FINO2 in eradicating MDA-MB-231 cells: comparator FINO2; for fold more cytotoxic than OZ439 on MDA-MB-231: comparator OZ439 (literature)
Description: (§1) The anticancer activities of the exemplary compounds listed in Example 1 were tested against human cervix Hela cells, mammary breast cancer MDA-MB-231 cells, human hepatocellular HepG2 cells, human colorectal HCT116 cells, mammary ductal T47D cells, non-cancerous NIH3T3 cells, dog's kidney MDCK cells, and mouse brain bEnd.3 cells, respectively.

Hela cells = experiment: MTT viability assay, Hela cells; type: cell-based, human; details: Homo sapiens, HeLa, 48 h incubation, mean, n = 3, read-out: IC50 against Hela cells
Description: as §1

T47D cells = experiment: MTT viability assay, T47D cells; type: cell-based; details: for IC50: Homo sapiens, T47D
Description: as §1

HCT116 cells = experiment: MTT viability assay, HCT116 cells; type: cell-based, human; details: for IC50: Homo sapiens, HCT-116; for fold more cytotoxic to HCT116 cells than OZ277: comparator OZ277; for fold more cytotoxic than OZ439 on HCT116: comparator OZ439 (literature)
Description: as §1

Huh7 = experiment: Viability IC50, Huh7 cells; type: cell-based; details: Homo sapiens, Huh-7; Table 12a
U2OS = experiment: Viability IC50, U2OS cells; type: cell-based; details: Homo sapiens, Table 12a
MCF7 = experiment: Viability IC50, MCF7 cells; type: cell-based; details: Homo sapiens, Table 12a
HeyA8 cells = experiment: CellTiter-Glo viability, adherent HeyA8 ovarian cancer cells; type: cell-based; details: HEY A8; adherent cancer cells; CellTiter-Glo, 48 hrs, n = 3
[1] = test system: HEYA8 CSC xenograft tumors; experiment: Mouse xenograft ovarian tumors (HEYA8 CSC); type: in vivo; details: for tolerability of regimens in tested animals / abnormal behavior or weight loss during treatment period: HEYA8 CSC xenograft mice; for abnormal behavior or weight loss during treatment period: entire treatment period
Description: FIG. 7A is a graph showing the tumor volume of xenograft tumors versus time after s.c. injection of DMSO, PTX, compound 37b, or compound 48. Nude mice were injected s.c. with HEYA8 CSC cells (10^6) and randomly allocated to one of the six treatment groups (n=4): (i) DMSO, (ii) Paclitaxel (PTX), 5 mg/kg, (iii) compound 37b, 5 mg/kg, (iv) compound 37b, 10 mg/kg, (v) compound 48, 5 mg/kg, or (vi) compound 48, 10 mg/kg. When control animals (DMSO) began to appear tumor ulceration (25 days), all animals in the experiment were sacrificed and photographed. FIG. 7B are photographs of the tumor from sacrificed animals of different treatment groups after 25 days. FIG. 7C is a graph showing the tumor weight of xenograft tumors versus time after s.c. injection of DMSO, PTX, compound 37b, or compound 48. Data are shown as mean±SEM. * P≤0.05 versus DMSO group.
The cytotoxicity of 1,2,4,5-tetraoxanes 48 and 37b on cancer stem cell (CSC) model of HEY A8 CSCs and mouse xenograft ovarian tumors (FIG. 2) was examined. Nude mice were injected s.c. with HEYA8 CSC cells […] and randomly allocated to one of the six treatment groups (n=4): (i) DMSO, (ii) Paclitaxel (PTX), 5 mg/kg, (iii) compound 37b, 5 mg/kg, (iv) compound 37b, 10 mg/kg, (v) compound 48, 5 mg/kg, and (vi) compound 48, 10 mg/kg. When control animals (DMSO) began to appear tumor ulceration (25 days), all animals in the experiment were sacrificed and photographed. It is known that ovarian CSCs have resistance to Taxol, so Taxol was used as negative control.

[2] = test system: MDA-MB-231 xenograft tumors; experiment: Mouse xenograft breast tumors (MDA-MB-231); type: in vivo, Nude mice; details: for histopathological observations of liver, heart, kidney, spleen and lungs: H&E staining, compared to the controls
Description: FIG. 12A is a graph showing the tumor volume of xenograft tumors versus time after s.c. injection of DMSO, PTX, compound 37b, or compound 48. Nude mice were injected s.c. with MDA-MB-231 cells (10^6) and randomly allocated to one of the six treatment groups (n=5): (i) DMSO, (ii) Paclitaxel (PTX), 5 mg/kg, (iii) compound 37b, 5 mg/kg, (iv) compound 37b, 10 mg/kg, (v) compound 48, 5 mg/kg, or (vi) compound 48, 10 mg/kg. When control animals (DMSO) began to appear tumor ulceration (25 days), all animals in the experiment were sacrificed and photographed.
FIG. 12B are photographs of the tumor from sacrificed animals of different treatment groups after 25 days. FIG. 12C is a graph showing the tumor weight of xenograft tumors versus time after s.c. injection of DMSO, PTX, compound 37b, or compound 48. Data are shown as mean±SEM. * P≤0.05 versus DMSO group. FIG. 12D are photographs showing the morphological observation of mice tissue treated with DMSO, paclitaxel, compound 37b, or compound 48 with H&E staining on heart, liver, kidney, lungs, and spleen tissues (200×).

[3] = test system: cytosolic hydroxyl radical in MDA-MB-231 cells; experiment: HKOH-1r hydroxyl radical detection in MDA-MB-231 cells; type: cell-based; details: about 5.5 h after addition
Description: FIG. 10 is a bar graph showing the relative mean fluorescence intensities of cells with HKOH-1r measured from the confocal images of MDA-MB-231 cells after treatment with compounds 48 and 37b, respectively. Scale bars represent 50 μm. Data are mean±s.e.m., n=20 cells for HKOH-1. Statistical significance was determined as ***P≤0.01 by Student's t test.
Reactive oxygen species is associated with the event of ferroptotic cell death. Oxidative stress induced by 48 and 37b can be indicated by the fluorogenic probe, HKOH-1r, that emits at 520 nm upon oxidation by cytosolic hydroxyl radical. By using HKOH-1r, it is possible to specify the type of ROS that tetraoxanes can produce in MDA-MB-231 cells.
Confocal images of MDA-MB-231 cells after tetraoxane treatment were captured and the relative mean fluorescence intensities of cells with HKOH-1r were quantified (FIG. 10). […] This phenomenon is consistent with one of the features of ferroptosis.

[4] = MDA-MB-231, Table 12b, read-out: IC50 MDA-MB-231
[5] = MTT, 48 h incubation, mean, n = 3, read-out: IC50 against T47D cells
[6] = MTT, 48 h incubation, mean, n = 3, read-out: IC50 against HCT116 cells
[7] = Table 12b, read-out: IC50 HCT116

| Structure (SMILES) | IC50 (MDA-MB-231 cells; [4]) [nM] | fold more potent than FINO2 in eradicating MDA-MB-231 cells (MDA-MB-231 cells) | fold more cytotoxic than OZ439 on MDA-MB-231 (MDA-MB-231 cells) [fold] | IC50 (Hela cells) [nM] | IC50 (T47D cells; [5]) [nM] | IC50 (T47D cells; Table 12b, read-out: IC50 T47D) [nM] | selectivity index (IC50 of NIH3T3 divided by IC50 on T47D) (T47D cells; Table 12b, value in bracket) | IC50 (HCT116 cells; [6]) [nM] | IC50 (HCT116 cells; [7]) [nM] | fold more cytotoxic to HCT116 cells than OZ277 (HCT116 cells) [fold] | fold more cytotoxic than OZ439 on HCT116 (HCT116 cells) [fold] | IC50 (Huh7) [nM] | IC50 (U2OS) [nM] | IC50 (MCF7) [nM] | IC50 (HeyA8 cells) [nM] | tolerability of regimens in tested animals [1] | abnormal behavior or weight loss during treatment period [1] | histopathological observations of liver, heart, kidney, spleen and lungs [2] | hydroxyl radical (HKOH-1r fluorescence) [3] | other results |
| --- | --- | --- | --- | --- | --- | --- | --- | --- | --- | --- | --- | --- | --- | --- | --- | --- | --- | --- | --- | --- |
| CC(C)(C)C1CCC2(CC1)OOC1(CCC(OC(=O)NCCC[P+](c3ccccc3)(c3ccccc3)c3ccccc3)CC1)OO2.[Br-] (centres unmarked) [Compound 37b, (3-((((12-(tert-butyl)-7,8,15,16-tetraoxadispiro[5.2.59.26]hexadecan-3-yl)oxy)carbonyl)amino)propyl)triphenylphosphonium bromide] | 400 ± 50 | ≥ 25 fold | 64 | 1600 | 620 | 600 ± 100 | (>7.6) | 600 ± 300 | 600 ± 300 | 113 | 106 | 3800 ± 900 | 3400 ± 200 | 2400 ± 1700 | 1400 ± 70 | well-tolerated | no abnormal behavior or weight loss | no histological alterations | significant amount of hydroxyl radical was observed | selectivity index (IC50 of NIH3T3 divided by IC50 on MDA-MB-231) (MDA-MB-231 cells; Table 12b, value in bracket): (>11.5); fold more cytotoxic to MDA-MB-231 cells than OZ277 (MDA-MB-231 cells; comparator OZ277): 87 fold; selectivity index (IC50 of NIH3T3 divided by IC50 on HCT116) (HCT116 cells; Table 12b, value in bracket): (>7.6); tumor growth compared with vehicle control ([1]; 5 mg/kg and 10 mg/kg, HEYA8 CSC xenograft, 25 days): effective in inhibiting tumor growth; tumor growth compared with vehicle control ([2]; 10 mg/kg, MDA-MB-231 xenograft, 25 days): effective in inhibiting tumor growth |
| CC(C)(C)C1CCC2(CC1)OOC1(CCC(OC(=O)NCCC[N+](C)(Cc3ccccc3)Cc3ccccc3)CC1)OO2.[I-] (centres unmarked) [Compound 48, N,N-dibenzyl-3-((((12-(tert-butyl)-7,8,15,16-tetraoxadispiro[5.2.59.26]hexadecan-3-yl)oxy)carbonyl)amino)-N-methylpropan-1-aminium iodide] | 2400 ± 700 | at least 4 fold | 10 | 6300 | 1700 | 1700 ± 300 | (>17) | 2200 ± 300 | 2200 ± 300 | 44 | 29 | 5200 ± 400 | 4400 ± 600 | 8700 ± 4100 | 2300 ± 700 | well-tolerated | no abnormal behavior or weight loss | no histological alterations | significant amount of hydroxyl radical was observed | IC50 (MDA-MB-231 cells; MDA-MB-231, 48 h, MTT, 48 h incubation, mean, n = 3, read-out: IC50 against MDA-MB-231 cells): < 4000 nM; IC50 (MDA-MB-231 cells; MDA-MB-231, 48 h, Table 13, experimental data, MTT, 48 hrs, n = 3, read-out: IC50 MDA-MB-231): 2400 ± 700 nM; selectivity index (IC50 of NIH3T3 divided by IC50 on MDA-MB-231) (MDA-MB-231 cells; Table 13, value in bracket): (>12); IC50 (T47D cells; Table 13, experimental data, MTT, 48 hrs, n = 3, read-out: IC50 T47D): 1700 ± 300 nM; selectivity index (IC50 of NIH3T3 divided by IC50 on T47D) (T47D cells; Table 13, value in bracket): (>17); IC50 (HCT116 cells; Table 13, experimental data, MTT, 48 hrs, n = 3, read-out: IC50 HCT116): 2200 ± 300 nM; selectivity index (IC50 of NIH3T3 divided by IC50 on HCT116) (HCT116 cells; Table 13, value in bracket): (>13); tumor size ([1]; 10 mg/kg, HEYA8 CSC xenograft, 25 days): reduced the tumor size; tumor size ([2]; 5 mg/kg and 10 mg/kg, MDA-MB-231 xenograft, 25 days): reduced the tumor size; abnormal behavior or weight loss during treatment period ([2]; MDA-MB-231 xenograft mice, entire treatment period): no abnormal behavior or weight loss |
